These molecules were tested on HBsAg (assay: HBsAg assay: inhibition of HBsAg in HepG2.2.15 cells (CLIA immunoassay of supernatant)). Settings: Hepatitis B virus, HepG2.2.15, 144 h, read-out: sAg EC50, HepG2.2.15 cells; supernatant collected at day 6 after exposure; HBsAg chemiluminescence immunoassay.
Format: cell-based, hepatitis B virus (HBV)
Protocol: Inhibition of HBsAg was determined in HepG2.2.15 cells. Cells were maintained in culture medium containing 10% fetal calf serum, […], Glutamine, penicillin/streptomycin. Cells were seeded in 96-well collagen-coated plate at a density of 30,000 cells/well. Serially diluted compounds were added to cells next day at the final DMSO concentration of 0.5%. Cells were incubated with compounds for 2-3 days, after which medium was removed. Fresh medium containing compounds was added to cells for additional 3-4 days. At day 6 after exposure of compounds, supernatant was collected, the HBsAg immunoassay (microplate-based chemiluminescence immunoassay kits, CLIA, Autobio Diagnosics Co., Zhengzhou, China, Catalog #CL0310-2) was used to determine the level of HBsAg according to manufactory instruction. Dose-response curves were generated and the EC50 value (effective concentrations that achieved 50% inhibitory effect) were determined using XLfit software. In addition, cells can be seeded at a density of 5,000 cells/well for determination of cell viability in the presence and absence of compounds by using CellTiter-Glo reagent (Promega). Tables 1-3 show EC50 values obtained by the HBsAg assay for selected compounds.

Structure (SMILES)	EC50 [nM]
COCCCOc1cc2c(cc1OC)-c1[nH]c(=O)c(C(=O)O)cc1C(C)(C(C)C)C2 (centres unmarked) [Example 6, 5-Isopropyl-9-methoxy-8-(3-methoxypropoxy)-5-methyl-2-oxo-1,6-dihydrobenzo[h]quinoline-3-carboxylic acid]	44
COCCCOc1cc2c(cc1Cl)-c1[nH]c(=O)c(C(=O)O)cc1C(C)(C(C)C)C2 (centres unmarked) [Example 9, 9-Chloro-5-isopropyl-8-(3-methoxypropoxy)-5-methyl-2-oxo-1,6-dihydrobenzo[h]quinoline-3-carboxylic acid]	31
COCCCOc1cc2c(cc1OC)-c1nc(OC)c(C(=O)O)cc1C(C(C)C)C2 (centres unmarked) [Example 12, 5-Isopropyl-2,9-dimethoxy-8-(3-methoxypropoxy)-5,6-dihydrobenzo[h]quinoline-3-carboxylicacid]	1200
COCCCOc1cc2c(cc1OC)-c1[nH]c(=O)c(C(=O)O)c(O)c1C(C(C)C)C2 (centres unmarked) [Example 13, 4-Hydroxy-5-isopropyl-9-methoxy-8-(3-methoxypropoxy)-2-oxo-1,2,5,6-tetrahydrobenzo[h]quinoline-3-carboxylicacid]	6
COCCCOc1cc2c(cc1Cl)-c1[nH]c(=O)c(C(=O)O)c(O)c1C(C)(C(C)C)C2 (centres unmarked) [Example 14, 9-Chloro-4-hydroxy-5-isopropyl-8-(3-methoxypropoxy)-5-methyl-2-oxo-1,2,5,6-tetrahydrobenzo[h]quinoline-3-carboxylic acid]	62
COCCCOc1cc2c(cc1OC)-c1[nH]c(=O)c(C(=O)O)c(F)c1C(C(C)C)C2 (centres unmarked) [Example 17, 4-Fluoro-5-isopropyl-9-methoxy-8-(3-methoxypropoxy)-2-oxo-1,2,5,6-tetrahydrobenzo[h]quinoline-3-carboxylic acid]	640
COCCCOc1cc2c(cc1OC)-c1c(c(O)c(C(=O)O)c(=O)n1Cc1ccccc1)C(C(C)C)C2 (centres unmarked) [Example 18, 1-Benzyl-4-hydroxy-5-isopropyl-9-methoxy-8-(3-methoxypropoxy)-2-oxo-1,2,5,6-tetrahydrobenzo[h]quinoline-3-carboxylic acid]	15000
COCCCOc1cc2c(cc1OC)-c1nc(Cl)c(C(=O)O)c(O)c1C(C(C)C)C2 (centres unmarked) [Example 19, 2-Chloro-4-hydroxy-5-isopropyl-9-methoxy-8-(3-methoxypropoxy)-5,6-dihydrobenzo[h]quinoline-3-carboxylicacid]	8000
COCCCOc1cc2c(cc1OC)-c1[nH]c(=O)c(C(=O)O)c(Cl)c1C(C(C)C)C2 (centres unmarked) [Example 20, 4-Chloro-5-isopropyl-9-methoxy-8-(3-methoxypropoxy)-2-oxo-1,2,5,6-tetrahydrobenzo[h]quinoline-3-carboxylic acid]	3800
COCCCOc1cc2c(cc1OC)-c1nc(Cl)c(C(=O)O)c(Cl)c1C(C(C)C)C2 (centres unmarked) [Example 21, 2,4-Dichloro-5-isopropyl-9-methoxy-8-(3-methoxypropoxy)-5,6-dihydrobenzo[h]quinoline-3-carboxylic acid]	150
COCCCOc1cc2c(cc1OC)-c1[nH]c(=O)cc(O)c1C(C(C)C)C2 (centres unmarked) [Example 22, 4-Hydroxy-5-isopropyl-9-methoxy-8-(3-methoxypropoxy)-5,6-dihydrobenzo[h]quinolin-2(1H)-one]	340
COCCCOc1cc2c(cc1OC)-c1nc(Cl)c(C(=O)O)cc1C(C(C)C)C2 (centres unmarked) [Example 23, 2-Chloro-5-isopropyl-9-methoxy-8-(3-methoxypropoxy)-5,6-dihydrobenzo[h]quinoline-3-carboxylic acid]	240
COCCCOc1cc2c(nc1Cl)-c1c(cc(C(=O)O)c(=O)n1C)C(C(C)C)C2 (centres unmarked) [Example 25, 9-Chloro-5-isopropyl-8-(3-methoxypropoxy)-1-methyl-2-oxo-1,2,5,6-tetrahydro-1,10-phenanthroline-3-carboxylic acid]	94
COCCCOc1cc2c(nc1Cl)-c1[nH]c(=O)c(C(=O)O)c(O)c1C(C(C)C)C2 (centres unmarked) [Example 26, 9-Chloro-4-hydroxy-5-isopropyl-8-(3-methoxypropoxy)-2-oxo-1,2,5,6-tetrahydro-1,10-phenanthroline-3-carboxylic acid]	3
COCCCOc1cc2c(nc1Cl)-c1[nH]c(=O)c(C(=O)O)c(O)c1C(C(C)(C)C)C2 (centres unmarked) [Example 29, 5-(tert-Butyl)-9-chloro-4-hydroxy-8-(3-methoxypropoxy)-2-oxo-1,2,5,6-tetrahydro-1,10-phenanthroline-3-carboxylicacid]	1
COCCCOc1cc2c(cc1OC)-c1[nH]c(=O)c(C(=O)O)c(O)c1C(C)(C(C)C)C2 (centres unmarked) [Example 30, 4-Hydroxy-5-isopropyl-9-methoxy-8-(3-methoxypropoxy)-5-methyl-2-oxo-1,2,5,6-tetrahydrobenzo[h]quinoline-3-carboxylic acid]	58
COCCCOc1cc2c(nc1OC)-c1[nH]c(=O)c(C(=O)O)c(O)c1C(C(C)C)C2 (centres unmarked) [Example 33, 4-Hydroxy-5-isopropyl-9-methoxy-8-(3-methoxypropoxy)-2-oxo-1,2,5,6-tetrahydro-1,10-phenanthroline-3-carboxylic acid]	4
COCCCOc1cc2c(nc1OC)-c1[nH]c(=O)c(C(=O)O)c(O)c1C(C(C)(C)C)C2 (centres unmarked) [Example 36, 5-(tert-Butyl)-4-hydroxy-9-methoxy-8-(3-methoxypropoxy)-2-oxo-1,2,5,6-tetrahydro-1,10-phenanthroline-3-carboxylicacid]	1
CCOc1nc2c(cc1OCCCOC)CC(C(C)C)c1c-2[nH]c(=O)c(C(=O)O)c1O (centres unmarked) [Example 39, 9-Ethoxy-4-hydroxy-5-isopropyl-8-(3-methoxypropoxy)-2-oxo-1,2,5,6-tetrahydro-1,10-phenanthroline-3-carboxylicacid]	2
COCCCOc1cc2c(nc1OCC(F)F)-c1[nH]c(=O)c(C(=O)O)c(O)c1C(C(C)C)C2 (centres unmarked) [Example 42, 9-(2,2-Difluoroethoxy)-4-hydroxy-5-isopropyl-8-(3-methoxypropoxy)-2-oxo-1,2,5,6-tetrahydro-10-phenanthroline-3-carboxylic acid]	12
COCCCOc1cc2c(nc1OC)-c1[nH]c(=O)c(C(=O)O)cc1C(C(C)C)C2 (centres unmarked) [Example 43, 5-Isopropyl-9-methoxy-8-(3-methoxypropoxy)-2-oxo-1,2,5,6-tetrahydro-1,10-phenanthroline-3-carboxylic acid]	3
COCCCOc1cc2c(nc1OC)-c1[nH]c(=O)c(C(=O)O)cc1C(C(C)(C)C)C2 (centres unmarked) [Example 46, 5-(tert-Butyl)-9-methoxy-8-(3-methoxypropoxy)-2-oxo-1,2,5,6-tetrahydro-1,10-phenanthroline-3-carboxylicacid]	1

Same assay, conditions: read-out: sAg EC50; HepG2.2.15 cells; supernatant collected at day 6 after exposure; HBsAg chemiluminescence immunoassay

Structure (SMILES)	EC50 [nM]
COCCCOc1cc2c(nc1Cl)-c1[nH]c(=O)c(C(=O)O)c(O)c1C(C(C)(C)C)CO2 (single isomer, unassigned) [Example 78, 7-(tert-Butyl)-2-chloro-8-hydroxy-3-(3-methoxypropoxy)-10-oxo-6,7,10,11-tetrahydrooxepino[3,2-b:4,5-b′]dipyridine-9-carboxylicacid]	6000
CCc1nc2c(cc1OCCCOC)OCC(C(C)(C)C)c1c-2[nH]c(=O)c(C(=O)O)c1O (single isomer, unassigned) [Example 80, 7-(tert-Butyl)-2-ethyl-8-hydroxy-3-(3-methoxypropoxy)-10-oxo-6,7,10,11-tetrahydrooxepino[3,2-b:4,5-b′]dipyridine-9-carboxylic acid]	7000
CCc1nc2c(cc1OCCCOC)OCC(C(C)(C)C)c1c-2[nH]c(=O)c(C(=O)O)c1O (single isomer, unassigned) [Example 81, 7-(tert-Butyl)-2-ethyl-8-hydroxy-3-(3-methoxypropoxy)-10-oxo-6,7,10,11-tetrahydrooxepino[3,2-b:4,5-b′]dipyridine-9-carboxylic acid]	4
COCCCOc1cc2c(nc1C1CC1)-c1[nH]c(=O)c(C(=O)O)c(O)c1C(C(C)(C)C)CO2 (single isomer, unassigned) [Example 82, 7-(tert-Butyl)-2-cyclopropyl-8-hydroxy-3-(3-methoxypropoxy)-10-oxo-6,7,10,11-tetrahydrooxepino[3,2-b:4,5-b′]dipyridine-9-carboxylic acid]	30000
COCCCOc1cc2c(nc1C1CC1)-c1[nH]c(=O)c(C(=O)O)c(O)c1C(C(C)(C)C)CO2 (single isomer, unassigned) [Example 83, 7-(tert-Butyl)-2-cyclopropyl-8-hydroxy-3-(3-methoxypropoxy)-10-oxo-6,7,10,11-tetrahydrooxepino[3,2-b:4,5-b′]dipyridine-9-carboxylic acid]	15
COCCCOc1cc2c(nc1OC)-c1[nH]c(=O)c(C(=O)O)c(O)c1C(C(C)(C)C)CO2 (single isomer, unassigned) [Example 85, 7-(tert-Butyl)-8-hydroxy-2-methoxy-3-(3-methoxypropoxy)-10-oxo-6,7,10,11-tetrahydrooxepino[3,2-b:4,5-b′]dipyridine-9-carboxylic acid]	66
COCCCOc1cc2c(nc1OC)-c1[nH]c(=O)c(C(=O)O)c(O)c1C(C(C)(C)C)CO2 (single isomer, unassigned) [Example 86, 7-(tert-Butyl)-8-hydroxy-2-methoxy-3-(3-methoxypropoxy)-10-oxo-6,7,10,11-tetrahydrooxepino[3,2-b:4,5-b′]dipyridine-9-carboxylic acid]	30000

From patent US11702427B2 (priority 2018, dated 2023)
